Source: patent US11260072B2, “MicroRNA-based methods and assays for osteocarcinoma” (3-D Matrix, Ltd., priority 2011, dated 2022)
“Also recorded” adds a separate entry of the source.

How the values were obtained:
[1] = system: SGMS2; experiment: SGMS2 mRNA in 143B-luc tumors of LNA-133a-treated mice; type: in vivo, human
Source text: (§1) RNA isolation and quantitative real-time RT-PCR of mRNAs and miRNAs. Total RNA was purified from cells and tumor tissues with an RNeasy Mini Kit and RNase-Free DNase Set (QIAGEN). For quantitative polymerase chain reaction (qPCR) of mRNAs, cDNA was synthesized using High-Capacity cDNA Reverse Transcription Kit (Applied Biosystems). For each qPCR reaction, equal amounts of cDNA were mixed with Platinum SYBER Green qPCR SuperMix (Invitrogen) and specific primers (Table 1). Gene expression levels were normalized by beta actin (ACTB) or glyceraldehyde 3-phosphate dehydrogenase (GAPDH). For qPCR of miRNAs, miRNA was converted to cDNA using the TaqMan MicroRNA Reverse Transcription Kit (Applied Biosystems). RNU6B small nuclear RNA was amplified as an internal control. qPCR was performed using each miRNA-specific probe included with the TaqMan MicroRNA Assay on a Real-Time PCR System 7300 and SDS software (Applied Biosystems).
Monitoring tumor growth, lung metastasis, and toxicity with/without LAN-anti-miR-133a. […] Ten minutes later, photons from firefly luciferase were counted using the IVIS imaging system (Xenogen Corp.) according to the manufacturer's instructions. […] The development of subsequent lung metastasis was monitored once a week in vivo by the bioluminescent imaging described above for 5 weeks. All data were analyzed using LivingImage software (version 2.50, Xenogen). […]

[2] = system: CD133^high cells; experiment: qPCR of genes associated with stemness, drug resistance and metastasis after LNA transfection; type: cell-based, human; conditions: β-actin internal control
Source text: as §1
(§2) Transfection with synthetic miRNAs, LNAs, and siRNAs. […]

[3] = system: CD133^high SaOS2 and HOS cells; experiment: cell proliferation after LNA transfection; type: cell-based, human; conditions: day 4 after transfection
Procedure: (§3) Cell proliferation and cytotoxity assay. Cell proliferation rates and cell viability as an indicator for the relative sensitivity of the cells to doxorubicin, cisplatin, and methotrexate were determined using TetraColor ONE Cell proliferation Assay System (Seikagaku) according to the manufacturer's instructions. Cells growing in the logarithmic phase were seeded in 96-well plates (5×10^3/well), allowed to attach overnight, and then were treated with varying doses of doxorubicin (Sigma), cisplatin (Alexis), and methotrexate (Sigma) for 72 h. Triplicate wells were used for each treatment group. Absorbance was measured at 450 nm with a reference wavelength at 650 nm on EnVision (Wallac). The relative number of viable cells was expressed as the percent of cell viability.
as §2

[4] = system: miR-133a; experiment: miR-133a expression in 143B-luc tumors (qRT-PCR); type: in vivo, human; conditions: vs saline-treated mice
Source text: as §1, with “RNU6B small nuclear RNA was amplified as an internal control. qPCR was performed using each miRNA-specific probe included with the TaqMan MicroRNA Assay on a Real-Time PCR System 7300 and SDS software (Applied Biosystems).” left out
To extend the in vitro findings and to determine whether silencing of miR-133a could be an effective therapeutic option for osteosarcoma treatment, the effect of LNA-133a on a spontaneous lung metastasis model of osteosarcoma was examined. […] The implanted tumor growth and the presence of distant metastases were analyzed weekly for luciferase bioluminescence using an in vivo imaging system (IVIS). […] At 5 weeks, half the mice in each group were euthanized for further analysis; the remaining mice were monitored for survival.

[5] = system: miR-133a; experiment: silencing of miR-133a in LNA-transfected CD133high cells (real-time RT-PCR); type: cell-based, human; conditions: CD133high SaOS2 and HOS cells, LNA 30 nM
Source text: as §1, §2

[6] = assessment of toxicity in LNA-treated tumor-bearing mice; type: in vivo; conditions: during the observation period
Procedure: (§4) Monitoring tumor growth, lung metastasis, and toxicity with/without LAN-anti-miR-133a. For the assessment of tumorigenicity between CD133^high and CD133^low HOS-Luc cells, NOD/SCID mice were injected with D-luciferin (150 mg/kg, Promega) by intraperitoneal injection. Ten minutes later, photons from firefly luciferase were counted using the IVIS imaging system (Xenogen Corp.) according to the manufacturer's instructions. Each experimental condition included 5 animals per group and monitoring once a week. For the evaluation of LNA-anti-miR-133a administration into spontaneous lung metastasis of osteosarcoma model mice, individual mice were injected with 10 mg/kg of LNA-anti-miR-133a or saline via the tail vain. LNA were injected on following days 4, 11, 18, 25, 32 postinoculation of 143B-Luc cells. Each experimental condition included 10 animals per group. The development of subsequent lung metastasis was monitored once a week in vivo by the bioluminescent imaging described above for 5 weeks. All data were analyzed using LivingImage software (version 2.50, Xenogen). On day 36, the primary tumor and lung in 5 mice of each group were resected at necropsy for their weight, bioluminescent, and histological analyses. The blood examination, weight of whole body as well as heart, liver, and skeletal muscle, and histopathological examination were performed for the assessment of toxicity.

[7] = system: CD133^high SaOS2 and HOS populations; experiment: invasion assay after LNA transfection; type: cell-based, human
Procedure: Invasion assay. Invasion assays were performed by using 24-well BD BioCoat Invasion Chambers with Matrigel (Becton-Dickinson). 1×10^5 cells, suspended in 500 μL DMEM or RPMI 1640 medium without FBS, were added to the upper chamber, and DMEM or RPMI 1640 medium with 10% FBS was added to the lower chamber. After incubation for 24 h or 36 h, the cells on the upper surface of the filter were completely removed by wiping them with cotton swabs. The filters were fixed in methanol and stained with 1% toluidine blue in 1% sodium tetraborate (Sysmex). Filters were then mounted onto slides, and cells on lower surfaces were counted. Each assay was performed in triplicate.
(§5) Transfection with synthetic miRNAs, LNAs, and siRNAs. Synthetic hsa-miRs (Pre-miR-hsa-miR-1, -10b, -133a, and negative control (NC; Applied Biosystems, Table 2) and locked nucleic acids (LNAs) (LNA-1, -10b, -133a, and negative control, Exiqon, Table 3) were transfected into each type of cells at 30 nM each (final concentration) using DharmaFECT 1(GE Healthcare). Synthetic siRNAs (Bonac corporation, Table 4) were transfected into each type of cells at 100 nM each (final concentration) using DharmaFECT 1 (GE Healthcare). After 24 hours of incubation, cells were treated with chemotherapeutic agents for cytotoxicity assay or reseeded into invasion chambers for invasion assay.

[8] = system: CD133^high cells; experiment: cytotoxicity assay (drug sensitivity) after LNA transfection; type: cell-based, human; conditions: DOX 0.4 μM or CDDP 5 μM, 48 h, 24 h after transfection
Procedure: as §3, with “Cells growing in the logarithmic phase were seeded in 96-well plates (5×10^3/well), allowed to attach overnight, and then were treated with varying doses of doxorubicin (Sigma), cisplatin (Alexis), and methotrexate (Sigma) for 72 h.” left out
as §5

[9] = system: CD133^high cells; experiment: apoptotic cell count (Hoechst staining) after LNA transfection; type: cell-based, human; conditions: compared to control CD133high cells; CDDP 5 μM, 48 h
[10] = system: 143B-luc; experiment: spontaneous lung metastasis model of osteosarcoma (143B-luc implanted orthotopically into tibia); type: in vivo, athymic nude mice
Procedure: Tumor transplantation experiments. Animal experiments were performed in compliance with the guidelines of the Institute for Laboratory Animal Research, National Cancer Center Research Institute. Athymic nude mice or NOD/SCID mice (CLEA Japan) were purchased at 4 weeks of age and given at least 1 week to adapt to their new environment prior to tumor transplantation. On day 0, mice were anesthetized with 3% isoflurane and the right leg disinfected with 70% ethanol. Cells were aspirated into a 1 mL tuberculin syringe fitted with a 27-G needle. The needle was inserted through the cortex of the anterior tuberosity of the tibia with a rotating movement to avoid cortical fracture. Once the bone was traversed, the needle was inserted further to fracture the posterior cortex of the tibia. A 100 μL volume of solution containing freshly isolated CD133^high and CD133^low HOS-Luc (10^2, 10^3, 10^4, 10^5 cells per site) or 143B-Luc (1.5×10^6) was injected while slowly moving back the needle.
as §4
To extend the in vitro findings and to determine whether silencing of miR-133a could be an effective therapeutic option for osteosarcoma treatment, the effect of LNA-133a on a spontaneous lung metastasis model of osteosarcoma was examined. Experimentally, 1.5×10^6 cells of 143B transfected with firefly luciferase gene (143B-luc) were implanted orthotopically into the right proximal tibia of athymic nude mice. The implanted tumor growth and the presence of distant metastases were analyzed weekly for luciferase bioluminescence using an in vivo imaging system (IVIS). […] To assess the efficacy of the new treatment protocol, results were compared with three control groups (n=10 each): a saline control group, an LNA group, and a CDDP group. At 5 weeks, half the mice in each group were euthanized for further analysis; the remaining mice were monitored for survival.

## LNA-133a: locked nucleic acid antisense to hsa-miR-133a-1, 5′-CAGCTGGTTGAAGGGGACCAA-3′ (Exiqon) (LNA-modified oligonucleotide from Exiqon, pattern not given here)
[1]
  expression of mRNA for SGMS2: increased expression
[2]
  expression of the molecules associated with CD133high phenotypes: decreased
[3]
  proliferation rate: suppressed in proliferation rate to the same level of CD133^low cells transfected with LNA-NC
[4]
  expression of miR-133a of tumors: reduced miR-133a levels; also recorded: decreased
[5]
  efficacy for the silencing of miR-133a: confirmed; also recorded: knock-down
[6]
  toxic effects on various tissue including heart, liver, and skeletal muscle: minimal toxic effects
[7]
  invasiveness: decreased the invasiveness
[8]
  sensitivity to DOX and CDDP (cell viability): enhanced sensitivity to DOX and CDDP
[9]
  apoptotic cell death rate: significantly higher apoptotic cell death rate
[10]; IVIS bioluminescence
  Luminescence of lung (mean): 1744
[10]; day 35
  Lung metastasis (mice with metastasis / mice in group): 7/10
[10]; day 36, LNA-133a 10 mg kg-1 i.v., CDDP i.p.
  Tumor weight (mean): 3.143 g
